Laboratory results reported in patent US20150209354A1, “CASEIN KINASE 1 INHIBITORS FOR THE TREATMENT OF B-CELL CHRONIC LYMPHOCYTIC|LEUKEMIA” (MASARYKOVA UNIVERZITA, priority 2012, published 2015).
“Also recorded” adds a separate entry of the source.

Legend:
primary CLL cells [1] = assay: Migration of pre-treated primary CLL cells into tissues of transplanted NSG mice (FACS of calcein-positive cells); assay type: in vivo; conditions: cells pre-treated 20 hours with 100 μM D4476; intraperitoneal injection; tissues analysed after 24 hours; vs DMSO
Description: (§1) FIG. 3: CK1 controls the migration of CLL cells in vivo. (A) Layout of the experiment: CLL cells were obtained by purification from the samples of fresh blood from patients, stimulated and stained in vitro using green calcein. They were subsequently intraperitoneally injected to NSG mice. After 24 hours the murine tissues were examined for the presence of calcein-positive CLL cells using flow-cytometry (refer to the G1 cut-out in the typical dot plot distribution). (B) The rate of apoptosis in primary CLL cells after adding DMSO/D4476 (CK1 inh. I) was determined by the analysis of membrane potential of mitochondria using flow-cytometry while using tetramethylrhodamine ethyl ester (TMRE) stained with green calcein dye. […] The charts show the ratio of the CLL cells (the quantity of positive cells/total quantity of cells in the organ) treated by DMSO or D4476 (CK1 inh. I) that were obtained from the spleen (Ci), liver (Cii), and bone marrow (Ciii) of transplanted mice. […]
(§2) Freshly isolated human CLL lymphocytes (25×10^6 from the patient) were pre-treated for 20 hours with a CK1 inhibitor (100 μM, D4476, Calbiochem), and dimethylsulfoxide (DMSO, Sigma-Aldrich) as control. […] Samples of spleen, liver, and femoral bone marrow of mice were taken 24 hours after the injection and analyzed. Migration of calcein-positive CLL cells to these tissues was determined by FACS analysis (FACScalibur).

MEC1 cells [2] = assay: Transwell migration of MEC1 cells to chemokines CCL19 and CCL21; assay type: cell-based, human; conditions: D4476 100 μM overnight; CCL19 and CCL21 200 ng/ml; vs DMSO control
Description: FIG. 1: Migration of MEC1 cells which represents an in-vitro CLL model was investigated in the presence of chemokines CCL19 and CCL21 (200 ng/ml) using Transwell migration chamber. The rate of migration is expressed as a migration index. The MEC1 migration triggered by the chemokines CCL21 and CCL19 is blocked by CK1 inhibitors—D4476 (CK1 inh. I; 100 μM) and PF670462 (CK1 inh. II; 50 μM). The values in the FIGS. 1A and 1B represent the average and the standard error. Statistical significance was tested using One-way ANOVA and Tukey post-hoc test (*p<0.05, **p<0.01, ***p<0.001).
In this example, the MEC1 cell line was used, which is a well-defined cell line obtained from a CLL patient in a pro-lymphocytic transformation. The MEC1 line is used as a transplantation model of CLL. […]
(§3) Into the upper insert of HTS Transwell® 96-well plates (Corning Incorporated, Mexico) with polycarbonate membranes with the pore size of 5.0 μm, 0.5×10^6 MEC1 cells were seeded. […] The migration to chemokine was then analyzed using the Coulter Counter instrument (model FN, Coulter Electronics, Fla., USA). The migration index was calculated as the number of cells (treated or non-treated) migrating to the chemokine divided by the number of cells migrating only to the control medium.

primary CLL cells [3] = assay: Rate of apoptosis of primary CLL cells by mitochondrial membrane potential (TMRE/calcein flow cytometry); assay type: cell-based, human; conditions: 100 μM D4476, 20 hours pre-treatment; TMRE and calcein staining; vs DMSO
Description: as §1
as §2, with “(FACScalibur). […]” for “(FACScalibur).”

MEC1 cells [4] = assay: Chemokine-controlled transendothelial invasion of MEC1 cells through HUVEC layer (Transwell); assay type: cell-based, human; conditions: D4476 100 μM overnight, HUVEC-covered Transwell
Description: FIG. 2: Transendothelial invasiveness of the MEC1 cells was tested in the Transwell migration chamber in an arrangement where the upper chamber was covered with one layer of HUVEC endothelial cells. The rate of invasiveness (determined as the migration index) of the MEC1 cells was analyzed in the presence of the chemokine CCL19, Wnt5a, or in combination of both substances. The positive effect of CCL19 to the transendothelial migration of MEC1 was inhibited by addition of D4476 (CK1 inh. I). Statistical significance was tested using One-way ANOVA test and Tukey post-hoc test (***p<0.001). Each experiment was independently repeated three-times.
In the complex environment of the human body, cells react to the attractants and have to pass through extra-cellular matrix or endothelial barrier, which is a process known as invasion. […]
as §3, with “μm, covered with HUVEC (human umbilical vein endothelial cells monolayer),” for “μm,”

Structure (SMILES): NC(=O)c1ccc(-c2nc(-c3ccc4c(c3)OCCO4)c(-c3ccccn3)[nH]2)cc1 [D4476]
- migration of CLL cells to the spleen, liver and bone marrow (primary CLL cells [1]): reduced
- MEC1 migration (migration index) triggered by the chemokines CCL21 and CCL19 (MEC1 cells [2]): blocked
- rate of apoptosis in primary CLL cells (primary CLL cells [3]): does not alter the rate of apoptosis; also recorded: without an increase of cell apoptosis being detected
- CCL19-induced transendothelial migration (invasiveness, migration index) of MEC1 cells (MEC1 cells [4]): inhibited
